Laboratory results published in patent US10967078B2, “Radiolabelled mGluR2 PET ligands” (Janssen Pharmaceutica NV, priority 2014, dated 2021).

Target: T1, mGluR2 (Mus musculus, UniProt Q14BI2)
T1 construct: horizontal sections of mGluR2 KO and WT mouse brain and of normal female Wistar rat brain; from tissue; host or cells: mouse brain sections (WT and mGluR2 KO), 20 µm
Assay: In vitro autoradiography binding on mGluR2 KO and WT mouse brain sections
Settings: for Cortex WT (TB)/cortex WT (block Co. No. 1) / spec binding, cortex WT: WT mouse cortex; for Cortex WT (TB)/cortex WT (block Co. No. 1) / spec binding, cortex WT / Striatum WT (TB)/striatum WT (block Co. No. 1) / spec binding, striatum WT: block with 10 μM Co. No. 1; for Striatum WT (TB)/striatum WT (block Co. No. 1) / spec binding, striatum WT: WT mouse striatum; for difference in tracer binding to WT and mGluR2 KO mouse brain sections: in words; for Cortex WT (TB)/Cortex KO (TB) / Striatum WT (TB)/Striatum KO (TB): total binding ratio, WT versus mGluR2 KO mouse brain sections
Description: In vitro autoradiography studies were performed on horizontal sections of mGluR2 KO and WT mouse brain and of normal female Wistar rat brain (20 μm). The sections were preincubated in 50 mM Tris-HCl (MgCl2 2 mM, CaCl2 2 mM; pH 7.0) for 10 min (two times) at room temperature and dried. Next, the brain sections were incubated with tracer [^11C]-2, [^11C]-5, [^11C]-4, [^11C]-1 or [^18F]-3 diluted in the same Tris-HCl buffer as used for the preincubation additionally containing 0.1% BSA or with this tracer solution in the presence of 10 μM Co. No. 2 or Co. No. 1. The mouse brain sections were incubated with 17 kBq of carbon-11 labeled tracer and 1.7 kBq of fluorine-18 labeled tracer. For the rat brain sections this was 44 kBq of carbon-11 labeled tracer and 0.44 kBq of fluorine-18 labeled tracer. After 30 min of incubation, the brain sections were washed three times for 5 min in ice-cold Tris-HCl 50 mM ((MgCl2 2 mM, CaCl2 2 mM; pH 7.0+0.1% BSA buffer). After a quick dip in purified ice-cold water, the slides were dried. Autoradiograms were obtained by exposing the slides overnight to a high-performance phosphor storage screen (super-resolution screen; Perkin Elmer, Waltham, USA). The screens were read using a Cyclone Plus system (Perkin Elmer) and analysed using Optiquant software (Perkin Elmer). The radioactivity concentration in the autoradiograms was expressed in digital light units (DLU)/mm^2.
To obtain additional information on the specificity of the tracer binding to mGluR2, in vitro autoradiography binding studies were performed on mGluR2 KO and WT mouse brain sections and on normal rat brain sections in presence or absence of a high concentration of mGluR2 NAM compounds (Co. No. 1 or Co. No. 2).

T1 sequence (Q14BI2 19-872): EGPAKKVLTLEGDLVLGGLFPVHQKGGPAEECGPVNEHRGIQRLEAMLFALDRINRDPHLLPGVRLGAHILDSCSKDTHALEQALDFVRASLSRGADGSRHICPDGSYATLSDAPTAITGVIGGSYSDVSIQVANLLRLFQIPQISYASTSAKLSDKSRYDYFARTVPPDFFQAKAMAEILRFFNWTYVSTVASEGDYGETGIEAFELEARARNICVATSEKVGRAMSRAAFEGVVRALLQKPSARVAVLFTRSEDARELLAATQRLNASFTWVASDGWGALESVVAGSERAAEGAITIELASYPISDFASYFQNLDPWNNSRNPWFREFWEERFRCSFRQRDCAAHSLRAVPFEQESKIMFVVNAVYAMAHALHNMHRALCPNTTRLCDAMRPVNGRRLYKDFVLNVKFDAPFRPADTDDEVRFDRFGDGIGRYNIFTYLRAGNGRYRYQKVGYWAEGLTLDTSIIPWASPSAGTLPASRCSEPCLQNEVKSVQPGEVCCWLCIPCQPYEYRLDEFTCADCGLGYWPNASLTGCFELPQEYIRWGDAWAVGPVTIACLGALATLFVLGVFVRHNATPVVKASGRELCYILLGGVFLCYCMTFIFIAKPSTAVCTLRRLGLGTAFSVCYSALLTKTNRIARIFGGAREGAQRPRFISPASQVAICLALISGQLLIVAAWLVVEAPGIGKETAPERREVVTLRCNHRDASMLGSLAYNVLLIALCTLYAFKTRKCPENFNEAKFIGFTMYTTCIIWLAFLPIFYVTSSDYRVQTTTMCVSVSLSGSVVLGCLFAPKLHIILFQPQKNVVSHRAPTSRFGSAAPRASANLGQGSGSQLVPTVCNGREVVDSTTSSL

| SMILES | Cortex WT (TB)/cortex WT (block Co. No. 1) | spec binding, cortex WT | Striatum WT (TB)/striatum WT (block Co. No. 1) | spec binding, striatum WT | difference in tracer binding to WT and mGluR2 KO mouse brain sections | Cortex WT (TB)/Cortex KO (TB) | Striatum WT (TB)/Striatum KO (TB) |
| --- | --- | --- | --- | --- | --- | --- | --- |
| C[C@H]1CN(c2ccc(S(F)(F)(F)(F)F)cc2)C(=O)c2c(-c3ccnc(N[11CH3])c3)cnn21 [[^11C]-4] | ~3.8 | (~74% spec | ~2.6 | (~62% spec | less pronounced | ~2.6 | ~2.2 |
| COc1nc(N2C[C@H](C)n3ncc(-c4ccnc(N[11CH3])c4)c3C2=O)ccc1C(F)(F)F [[^11C]-5] | ~2.4 | (~58% spec | ~1.9 | (~47% spec | less pronounced | ~2.6 | ~1.9 |
